Measurements reported in patent US20260035365A1, “1H-PYRROLO[3,2-B]PYRIDINE DERIVATIVES AS IRREVERSIBLE INHIBITORS OF MUTANT EGFR FOR THE TREATMENT OF CANCER” (Bayer Aktiengesellschaft, priority 2022, published 2026).

What was measured:
BA/F3 (insSVD) cells = assay: Ba/F3 cell survival assay (Cell Titer-Glo), EGFR-insSVD; type: cell-based; settings: without IL-3, with EGF
Method in brief: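 Ba/F3 cells stably expressing EGFR-insSVD or insSVD T790M via retrovirus (puromycin-selected), switched from IL-3 to 10 ng/mL EGF for 2 days, then plated at 4000 cells/well. Compound added by 100 nL pin transfer; 48 h at 37° C. Viability by CellTiter-Glo luminescence.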

[1] = tested on: BA/F3 (EGFR D770_N771 insSVD T790M) cells; assay: Ba/F3 cell survival assay (Cell Titer-Glo), EGFR-insSVD T790M; type: cell-based; settings: Ba/F3 EGFR-D770-N771ins_SVD; 48 h, without IL-3, with EGF
Description: 293T cells from ATCC were transfected with pBABEpuro expression constructs for WT EGFR or EGFR-insSVD, or EGFR-insSVD T790M, and pCL-Eco packaging vector using Fugene-6 transfection reagent from Promega. Plates were incubated at 37° C. for 48 h. Retrovirus was harvested by filtering the media supernatant through a 0.45 μm filter.
Ba/F3 cells purchased from DSMZ were grown in RPMI+10% FBS+10 ng/mL IL-3 and infected with filtered retroviral supernatant at a 1:2 dilution. Polybrene was added to a concentration of 8 μg/mL, plates were spun for 90 min, and incubated for 16 h at 37° C. 2 μg/mL puromycin was added to the infected cells 24 h after infection and cells were continually grown in the presence of puromycin and 10 ng/mL IL-3. Following stably expressing Ba/F3 cell lines were generated: Ba/F3-EGFR-WT, Ba/F3-EGFR-insSVD, Ba/F3-EGFR-insSVD T790M, (Ba/F3-vector-control).
For cell survival assays, Ba/F3 cells were grown to a density of 1-2 million cells per mL, spun down and resuspended in media without IL-3, and replated at a concentration of 200,000-500,000 cells per mL. The cells ectopically expressing WT EGFR, EGFR-insSVD, or EGFR-insSVD T790M were plated with 10 ng/mL Millipore Culture grade EGF. The cells ectopically expressing pBABEpuro empty vector were plated with 10 ng/mL IL-3.
2 days later, cells were plated in 50 μL in a 384 well plate at a concentration of 4000 cells per well for cells assayed in the absence of IL-3 and 2000 cells per well for cells assayed in the presence of IL-3. 100 nL of compound was added to each well using a 100 nL pin head, and plates were incubated at 37° C. for 48 h.
Cell viability was measured by adding 20 μL of Cell Titer-Glo Luminescent Cell Viability Reagent diluted 1:3 in PBS. Plates were sealed with Perkin Elmer Top-Seal, inverted several times to mix, and immediately centrifuged at 1000 rpm for 2 min. Plates were incubated in low light conditions for 8-10 min and luminescence was measured.

[2] = target: mutEGFR (D770_N771insNPG, T790); assay: mutEGFR (D770_N771insNPG, T790) kinase assay; type: biochemical, human
[3] = target: mutEGFR (D770_N771insSVD) (Homo sapiens, UniProt P00533, INS767SVD); assay: Exon20-mutant-EGFR (D770_N771insSVD) TR-FRET kinase assay; type: biochemical; settings: 2 mM ATP, 15 min preincubation
Method in brief: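 GST-fused human EGFR fragment R669-A1210 carrying the SVD insertion, Sf9-expressed, typically 15 pg/μl, was preincubated with compound for 15 min at 22° C in pH 7.0 Hepes/MgCl2 buffer. Phosphorylation was read by HTRF (665/620 nm ratio), normalised to no-inhibitor and no-enzyme controls.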

Sequence of mutEGFR (D770_N771insNPG, T790) (P00533 with tags, fused parts or gaps INS770NPG limits assumed): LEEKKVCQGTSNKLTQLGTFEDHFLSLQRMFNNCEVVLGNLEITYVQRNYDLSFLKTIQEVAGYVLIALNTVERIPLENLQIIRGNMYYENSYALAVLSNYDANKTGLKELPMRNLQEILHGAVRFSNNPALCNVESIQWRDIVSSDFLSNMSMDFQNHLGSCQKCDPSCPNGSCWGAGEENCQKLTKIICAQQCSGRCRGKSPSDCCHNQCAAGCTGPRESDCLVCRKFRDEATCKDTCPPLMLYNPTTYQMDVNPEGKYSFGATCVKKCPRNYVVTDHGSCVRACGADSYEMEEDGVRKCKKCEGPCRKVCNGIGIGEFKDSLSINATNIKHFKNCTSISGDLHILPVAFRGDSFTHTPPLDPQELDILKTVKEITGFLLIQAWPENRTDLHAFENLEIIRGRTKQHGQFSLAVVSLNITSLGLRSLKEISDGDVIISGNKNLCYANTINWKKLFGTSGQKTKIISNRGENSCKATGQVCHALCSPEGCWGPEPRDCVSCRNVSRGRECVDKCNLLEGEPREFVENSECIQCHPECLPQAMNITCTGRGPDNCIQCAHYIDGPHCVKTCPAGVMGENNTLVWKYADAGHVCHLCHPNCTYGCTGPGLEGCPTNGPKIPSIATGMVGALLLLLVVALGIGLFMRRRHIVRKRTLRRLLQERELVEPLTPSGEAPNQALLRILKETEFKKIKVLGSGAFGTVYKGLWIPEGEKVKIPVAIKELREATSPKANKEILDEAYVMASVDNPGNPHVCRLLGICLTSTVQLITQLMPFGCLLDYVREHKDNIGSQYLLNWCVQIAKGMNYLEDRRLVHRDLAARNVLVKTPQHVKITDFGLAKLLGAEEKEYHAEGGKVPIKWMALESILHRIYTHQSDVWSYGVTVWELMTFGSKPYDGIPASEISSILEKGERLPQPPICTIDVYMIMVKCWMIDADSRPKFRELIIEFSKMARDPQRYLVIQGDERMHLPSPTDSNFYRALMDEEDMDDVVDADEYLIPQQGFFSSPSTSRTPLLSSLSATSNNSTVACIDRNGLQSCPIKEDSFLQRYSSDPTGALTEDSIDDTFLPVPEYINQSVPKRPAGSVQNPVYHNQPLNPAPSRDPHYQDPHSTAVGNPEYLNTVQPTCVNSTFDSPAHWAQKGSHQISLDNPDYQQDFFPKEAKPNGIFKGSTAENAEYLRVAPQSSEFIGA
Sequence of mutEGFR (D770_N771insSVD) (P00533 with tags, fused parts or gaps INS767SVD limits assumed): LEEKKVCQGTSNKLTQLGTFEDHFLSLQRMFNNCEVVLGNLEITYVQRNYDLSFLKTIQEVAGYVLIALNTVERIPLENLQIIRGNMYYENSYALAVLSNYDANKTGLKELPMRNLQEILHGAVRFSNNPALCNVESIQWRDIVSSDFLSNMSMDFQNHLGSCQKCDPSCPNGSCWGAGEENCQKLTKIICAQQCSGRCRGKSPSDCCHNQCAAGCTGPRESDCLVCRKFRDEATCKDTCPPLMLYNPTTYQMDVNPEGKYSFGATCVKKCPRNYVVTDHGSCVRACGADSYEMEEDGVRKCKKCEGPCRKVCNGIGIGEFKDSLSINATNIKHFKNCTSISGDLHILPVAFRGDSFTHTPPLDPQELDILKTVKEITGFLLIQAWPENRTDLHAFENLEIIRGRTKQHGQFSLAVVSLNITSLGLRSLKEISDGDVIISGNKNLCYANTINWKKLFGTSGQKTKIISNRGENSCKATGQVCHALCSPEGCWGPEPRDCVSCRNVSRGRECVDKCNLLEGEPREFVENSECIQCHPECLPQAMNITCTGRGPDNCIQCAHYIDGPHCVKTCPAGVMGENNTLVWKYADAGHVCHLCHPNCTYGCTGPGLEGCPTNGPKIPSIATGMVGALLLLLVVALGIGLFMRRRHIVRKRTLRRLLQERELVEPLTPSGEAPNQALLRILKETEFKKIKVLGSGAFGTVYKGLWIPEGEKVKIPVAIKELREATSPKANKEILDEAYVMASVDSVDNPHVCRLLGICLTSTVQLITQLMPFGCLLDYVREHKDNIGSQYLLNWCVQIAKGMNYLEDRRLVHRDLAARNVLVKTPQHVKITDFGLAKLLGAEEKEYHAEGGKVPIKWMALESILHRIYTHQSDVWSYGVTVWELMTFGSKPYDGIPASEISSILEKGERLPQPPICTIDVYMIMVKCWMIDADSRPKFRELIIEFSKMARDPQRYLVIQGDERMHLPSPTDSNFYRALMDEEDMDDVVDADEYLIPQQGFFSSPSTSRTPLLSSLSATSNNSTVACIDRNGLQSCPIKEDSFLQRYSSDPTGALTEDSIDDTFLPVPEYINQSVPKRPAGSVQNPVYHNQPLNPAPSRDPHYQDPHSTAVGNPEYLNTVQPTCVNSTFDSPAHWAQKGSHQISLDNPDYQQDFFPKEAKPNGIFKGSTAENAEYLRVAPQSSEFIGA

SMILES | IC50 (BA/F3 (insSVD) cells; Mus musculus, BaF3, 48 h) | IC50 [1] | IC50 [2] | IC50 [3] | IC50 (BA/F3 (insSVD) cells; 48 h)
C=CC(=O)N(C)CCOc1cnccc1-c1[nH]c2cccnc2c1-c1cccc(C)c1 [Example 9, N-methyl-N-[2-({4-[3-(3-methylphenyl)-1H-pyrrolo[3,2-b]pyridin-2-yl]pyridin-3-yl}oxy)ethyl]prop-2-enamide] | 293 nM | 8720 nM | 13.5 nM | 6.01 nM | –
C=CS(=O)(=O)N1CCC[C@H]1COc1cnccc1-c1[nH]c2cccnc2c1-c1ccccc1 [Example 36, 2-(3-{[(2S)-1-(ethenesulfonyl)pyrrolidin-2-yl]methoxy}pyridin-4-yl)-3-phenyl-1H-pyrrolo[3,2-b]pyridine] | 3.27 nM | 44.6 nM | 0.308 nM | 0.104 nM | –
C=CC(=O)N(C)CCOc1cnccc1-c1[nH]c2cccnc2c1-c1ccc(Cl)cc1 [Example 11, N-[2-({4-[3-(4-chlorophenyl)-1H-pyrrolo[3,2-b]pyridin-2-yl]pyridin-3-yl}oxy)ethyl]-N-methylprop-2-enamide] | 1120 nM | 9980 nM | 46.2 nM | 13.4 nM | –
C=CC(=O)N(C)CCOc1cnccc1-c1[nH]c2cccnc2c1-c1ccc2cccnc2c1 [Example 18, N-methyl-N-[2-({4-[3-(quinolin-7-yl)-1H-pyrrolo[3,2-b]pyridin-2-yl]pyridin-3-yl}oxy)ethyl]prop-2-enamide] | 7980 nM | 9980 nM | 1670 nM | 549 nM | –
C/C=C/C(=O)N1CCC[C@H]1COc1cnccc1-c1[nH]c2cccnc2c1-c1ccccc1 [Example 92, (2E)-1-[(2S)-2-({[4-(3-phenyl-1H-pyrrolo[3,2-b]pyridin-2-yl)pyridin-3-yl]oxy}methyl)pyrrolidin-1-yl]but-2-en-1-one] | 7050 nM | – | > 20000 nM | 3750 nM | –
C=CS(=O)(=O)N(C)CCOc1cnccc1-c1[nH]c2cccnc2c1-c1cc(F)cc(F)c1 [Example 68, N-[2-({4-[3-(3,5-difluorophenyl)-1H-pyrrolo[3,2-b]pyridin-2-yl]pyridin-3-yl}oxy)ethyl]-N-methylethenesulfonamide] | 296 nM | – | 8.76 nM | 3.64 nM | –
CN(C)CC#CC(=O)N1CCC[C@H]1COc1cnccc1-c1[nH]c2cccnc2c1-c1ccccc1 [Example 100, 4-(dimethylamino)-1-[(2S)-2-({[4-(3-phenyl-1H-pyrrolo[3,2-b]pyridin-2-yl)pyridin-3-yl]oxy}methyl)pyrrolidin-1-yl]but-2-yn-1-one] | 57.5 nM | – | 4.67 nM | 1.11 nM | –
C=CC(=O)N1CCC[C@H]1COc1cnccc1-c1[nH]c2cccnc2c1-c1cccc(C#N)c1 [Example 87, 3-[2-(3-{[(2S)-1-(prop-2-enoyl)pyrrolidin-2-yl]methoxy}pyridin-4-yl)-1H-pyrrolo[3,2-b]pyridin-3-yl]benzonitrile] | 759 nM | – | 33.8 nM | 15.2 nM | –
C#CC(=O)N1CCC(Oc2cnccc2-c2[nH]c3cccnc3c2-c2cccc(C(F)(F)F)c2)C1 (racemic) [Example 123, 1-{(3RS)-3-[(4-{3-[3-(trifluoromethyl)phenyl]-1H-pyrrolo[3,2-b]pyridin-2-yl}pyridin-3-yl)oxy]pyrrolidin-1-yl}prop-2-yn-1-one] | 832 nM | – | 701 nM | 173 nM | –
C=CS(=O)(=O)N(C)CCOc1cnccc1-c1[nH]c2cccnc2c1-c1cccc(OC(F)(F)F)c1 [Example 74, N-methyl-N-{2-[(4-{3-[3-(trifluoromethoxy)phenyl]-1H-pyrrolo[3,2-b]pyridin-2-yl}pyridin-3-yl)oxy]ethyl}ethenesulfonamide] | 964 nM | – | 58.8 nM | 11.2 nM | –
C=CC(=O)N1CCC[C@H]1COc1cnccc1-c1[nH]c2cccnc2c1-c1ccc(F)c(OC(F)(F)F)c1 [Example 106, 1-[(2S)-2-{[(4-{3-[4-fluoro-3-(trifluoromethoxy)phenyl]-1H-pyrrolo[3,2-b]pyridin-2-yl}pyridin-3-yl)oxy]methyl}pyrrolidin-1-yl]prop-2-en-1-one] | 1630 nM | – | 77.4 nM | 13.3 nM | –
C=CS(=O)(=O)N(C)CCOc1cnccc1-c1[nH]c2cccnc2c1-c1cc(C(F)(F)F)ccc1F [Example 59, N-{2-[(4-{3-[2-fluoro-5-(trifluoromethyl)phenyl]-1H-pyrrolo[3,2-b]pyridin-2-yl}pyridin-3-yl)oxy]ethyl}-N-methylethenesulfonamide] | 76.4 nM | – | 1.6 nM | 0.499 nM | –
C=CS(=O)(=O)N1CC[C@@]1(C)COc1cnccc1-c1[nH]c2cccnc2c1-c1ccccc1 [Example 146, 2-(3-{[(2S)-1-(ethenesulfonyl)-2-methylazetidin-2-yl]methoxy}pyridin-4-yl)-3-phenyl-1H-pyrrolo[3,2-b]pyridine] | 1240 nM | – | 265 nM | 32.7 nM | –
C=CC(=O)N1CCC1(C)COc1cnccc1-c1[nH]c2cccnc2c1-c1ccccc1 (racemic) [Example 145, 1-[(2RS)-2-methyl-2-({[4-(3-phenyl-1H-pyrrolo[3,2-b]pyridin-2-yl)pyridin-3-yl]oxy}methyl)azetidin-1-yl]prop-2-en-1-one] | 9980 nM | – | 17400 nM | 3510 nM | –
C=CC(=O)N1CCC[C@H]1COc1cncc(F)c1-c1[nH]c2cccnc2c1-c1ccccc1 [Example 109, 1-[(2S)-2-({[5-fluoro-4-(3-phenyl-1H-pyrrolo[3,2-b]pyridin-2-yl)pyridin-3-yl]oxy}methyl)pyrrolidin-1-yl]prop-2-en-1-one] | 46.6 nM | – | 83.7 nM | 0.573 nM | –
C=CC(=O)N1CCC(Oc2cnccc2-c2[nH]c3cccnc3c2-c2cccc(C(F)(F)F)c2)C1 (racemic) [Example 122, 1-{(3RS)-3-[(4-{3-[3-(trifluoromethyl)phenyl]-1H-pyrrolo[3,2-b]pyridin-2-yl}pyridin-3-yl)oxy]pyrrolidin-1-yl}prop-2-en-1-one] | 2590 nM | – | 775 nM | 123 nM | –
C=CC(=O)N1C[C@@H](N(C)CCN(C)C)C[C@H]1COc1cnccc1-c1[nH]c2cccnc2c1-c1ccccc1 (single isomer, unassigned) [Example 131] | – | – | 3.58 nM | 1.17 nM | 54.6 nM
C=CC(=O)N(C)C[C@H](C)Oc1cnccc1-c1[nH]c2cccnc2c1-c1ccccc1 (stereo in doubt) [Example 133, N-methyl-N-[2-{[4-(3-phenyl-1H-pyrrolo[3,2-b]pyridin-2-yl)pyridin-3-yl]oxy}propyl]prop-2-enamide] | 9000 nM | – | 5590 nM | 3470 nM | –
C=CC(=O)N(C)CCOc1cnccc1-c1[nH]c2cccnc2c1-c1cccc(OC)c1 [Example 54, N-[2-({4-[3-(3-methoxyphenyl)-1H-pyrrolo[3,2-b]pyridin-2-yl]pyridin-3-yl}oxy)ethyl]-N-methylprop-2-enamide] | 3960 nM | – | 240 nM | 118 nM | –
C=CS(=O)(=O)N1CCC(Oc2cnccc2-c2[nH]c3cccnc3c2-c2cc(C)ccc2F)C1 (racemic) [Example 126, 2-(3-{[(3RS)-1-(ethenesulfonyl)pyrrolidin-3-yl]oxy}pyridin-4-yl)-3-(2-fluoro-5-methylphenyl)-1H-pyrrolo[3,2-b]pyridine] | 807 nM | – | 39.8 nM | 13.8 nM | –
C=CS(=O)(=O)N1CCC[C@H]1COc1cnccc1-c1[nH]c2c(C)ccnc2c1-c1ccccc1 [Example 136, 2-(3-{[(2S)-1-(ethenesulfonyl)pyrrolidin-2-yl]methoxy}pyridin-4-yl)-7-methyl-3-phenyl-1H-pyrrolo[3,2-b]pyridine] | 8.43 nM | – | 0.706 nM | 0.214 nM | –
C=CC(=O)N1CC[C@@H]1COc1cnccc1-c1[nH]c2cccnc2c1-c1ccccc1 (single isomer, unassigned) [Example 140] | 9.73 nM | – | 1.33 nM | 0.3 nM | –
